The values below are quoted from earlier work in patent US20090312688A1, “IONTOPHORESIS DRUG DELIVERY FORMULATION PROVIDING ACCEPTABLE SENSATION AND DERMAL ANESTHESIA” (Vyteris, Inc., priority 2005, published 2009).

For this series the following is noted: iontophoresis in vitro across human skin.

As to `CCCN(CC)C(CC)C(=O)Nc1c(C)cccc1C` (stereo not drawn) [etidocaine], the “cumulative delivery relative to lidocaine” value was “slightly greater delivery”.
For the molecule `CCN(CC)CCOC(=O)c1ccc(N)cc1` [procaine], the “cumulative delivery relative to lidocaine” value was “slightly greater delivery”.
As to `CCCNC(C)C(=O)Nc1ccccc1C` (stereo not drawn) [prilocaine], the “cumulative delivery relative to lidocaine” value was “slightly greater delivery”.
